Laboratory results: patent publication US7521062B2, “Thiosemicarbazones as anti-virals and immunopotentiators” (Novartis Vaccines & Diagnostics, Inc., priority 2002, dated 2009)

Assays:
[1] = system: TNF-alpha production by human PBMC; test: TNF-alpha production by human PBMC (ELISA); assay type: cell-based; details: for TNFa production: cytokine secretion of hPBMC after stimulation with thiosemicarbazone compounds; for SMIP activity (cytokine induction, TNF-alpha and IL-12 p40, % of LPS activity): human PBMC, 5 μM, FIG. 4
Protocol: Candidate small molecule immuno-potentiators can be identified in vitro. Compounds are screened in vitro for their ability to stimulate human peripheral blood mononuclear cells to produce cytokines (e.g. TNF-alpha and IL-12 p40). HCV antivirals were identified having this activity. These small molecule immuno-potentiators have potential utility as adjuvants and immuno-therapeutics.
TNF-alpha production by human PBMC was measured using a commercial ELISA from supernatants of cells stimulated with the indicated compounds for 18 to 24 hours All test compounds were used at a final concentration of 5 μM/ml. Untreated PBMC (Cells) and LPS (0.1 ng/ml), CPG (10 ng/ml) and/or ALTTE (5 μM/ml) treated PBMC served as negative and positive controls, respectively.
Table 2. Cytokine secretion of hPBMC after stimulation with thiosemicarbazone compounds.
High Throughput Screening (ITS) for small molecule immune potentiators; SMIPs: Attention is drawn to FIG. 3. Various compounds were evaluated for their ability to produce cytokines in response to the small molecule compounds using a modified sandwich ELISA. Compounds are screened for their TNF inducing. “Hits” are selected based on their TNF-inducing activity relative to an optimal dose a strong TNF inducer. The robustness of the assay and low backgrounds have allowed for the routine selection of hits with ˜10% of this activity which is normally between 5-10× background (cells alone). Selected hits are then subjected to confirmation for their ability to induce cytokines from multiple donors at decreasing concentrations. Those compounds with consistent activity at or below 5 μM are considered confirmed.
Thiosemicarbazones compounds with and without anti-HCV activity were screened for their capacity to activate immune cells. Structural analogs of this scaffold have been tested for their ability to induce cytokines from human PBMC and murine splenocytes. […] All compounds were tested at a final concentration of 5 μM except for poly I:C (PIC) and the 1806 oligodinucleotide (CpG) which were used at 10 μg/ml and 10 ng/ml respectively.

[2] = system: HCV replicon RNA in Huh-11-7 or Huh 9-13 cells; test: HCV replicon cell based assay (quantification of HCV replicon RNA by RT-PCR, normalized to GAPDH); details: separate/independent assays
Protocol: Quantification of HCV replicon RNA in Cell Lines (HCV Cell Based Assay):
Cell lines, including Huh-11-7 or Huh 9-13, harboring HCV replicons (Lohmann, et al Science 285:110-113, 1999) are seeded at 5×10^3 cells/well in 96 well plates and fed media containing DMEM (high glucose), 10% fetal calf serum, penicillin-streptomycin and non-essential amino acids. Cells are incubated in a 5% CO2 incubator at 37° C. At the end of the incubation period, total RNA is extracted and purified from cells using Qiagen Rneasy 96 Kit (Catalog No. 74182). To amplify the HCV RNA so that sufficient material can be detected by an HCV specific probe (below), primers specific for HCV (below) mediate both the reverse transcription (RT) of the HCV RNA and the amplification of the cDNA by polymerase chain reaction (PCR) using the TaqMan One-Step RT-PCR Master Mix Kit (Applied Biosystems catalog no. 4309169). […]
Detection of the RT-PCR product was accomplished using the Applied Biosystem (ABI) Prism 7700 Sequence Detection System (SDS) that detects the fluorescence that is emitted when the probe, which is labeled with a fluorescence reporter dye and a quencher dye, is processed during the PCR reaction. The increase in the amount of fluorescence is measured during each cycle of PCR and reflects the increasing amount of RT-PCR product. […] The data is analyzed using the ABI SDS program version 1.7. […]

Structure (SMILES) | TNFa production [1] [ng/10^6 cells/ml] | SMIP activity (cytokine induction, TNF-alpha and IL-12 p40, % of LPS activity) [1] | anti-HCV activity [2]
NC(=S)N/N=C/c1cccc(OCc2ccccc2)c1 [Example 7, 3-[(phenylmethyl)oxy]benzaldehydethiosemicarbazone] | 0 |  | 
NC(=S)N/N=C/c1ccc(-c2cccc(Cl)c2)o1 [Example 12, 5-(3-chlorophenyl)furan-2-carbaldehyde thiosemicarbazone] | 2.32 |  | 
CCN(CC)c1ccc(/C=N/NC(N)=S)c(OCc2ccc(Cl)cc2)c1 [Example 29, 2-{[(4-chlorophenyl)methyl]oxy}-4-(diethylamino)benzaldehydethiosemicarbazone] |  | possess both SMIP and anti-HCV activity | possess both SMIP and anti-HCV activity
COc1cc(/C=N/NC(N)=S)cc(Br)c1OCc1ccccc1F [Example 39, 3-bromo-4-{[(2-fluorophenyl)methyl]oxy}-5-(methyloxy)benzaldehydethiosemicarbazone] | 5 |  | 
NC(=S)N/N=C/c1ccc(NCCc2cccc(Cl)c2)c([N+](=O)[O-])c1 [Example 86, 4-{[2-(3-chlorophenyl)ethyl]amino}-3-nitrobenzaldehydethiosemicarbazone] | 5 |  | 
NC(=S)N/N=C/c1ccc(NCCc2ccc(Cl)cc2)c([N+](=O)[O-])c1 [Example 87, 4-{[2-(4-chlorophenyl)ethyl]amino}-3-nitrobenzaldehydethiosemicarbazone] | 1.25 |  | 
NC(=S)N/N=C/c1ccccn1 [Example 113, pyridine-2-carbaldehydethiosemicarbazone] | 2.34 | potent SMIP activity | weak or absent anti-HCV effects
C/C(=N\NC(N)=S)c1sc(-c2ncc(C(F)(F)F)cc2Cl)nc1C [Example 114] | 1.7 |  | 
Cc1ccc2c(c1)c1c(n2C)/C(=N/NC(N)=S)CCC1 [Example 115, (1E)-6,9-dimethyl-2,3,4,9-tetrahydro-1H-carbazol-1-onethiosemicarbazone] | 1.25 |  | 
